Reference: PMC3127977, “No relevant cardiac, pharmacokinetic or safety interactions between roflumilast and inhaled formoterol in healthy subjects: an open-label, randomised, actively controlled study” (BMC Clinical Pharmacology, 2011)

Test system: healthy subjects
Assay: Transthoracic impedance cardiography (ZCG) and systolic time intervals in healthy men; oral roflumilast 500 μg once daily, inhaled formoterol 24 μg twice daily
Settings: Regimen A
Procedure: For Regimen A, subjects received 500 μg oral roflumilast once daily (daily dose: one tablet of roflumilast 500 μg) from the morning of Day 2 to the morning of Day 18. […] For Regimen B, subjects received 24 μg formoterol for oral inhalation delivered by a DPI device (Foradil® P) twice daily, once in the morning and once in the evening from the morning of Day 2 to the evening of Day 18.
Cardiovascular effects were evaluated non-invasively by means of ECGs (cardiac rhythm, intra-cardiac conduction and ventricular repolarisation), oscillometric blood pressure and transthoracic impedance cardiography (ZCG; systolic time intervals, contractility indices and estimates of stroke volume and cardiac output). Cardiovascular assessments (oscillometric blood pressure, pulse rate, 12-lead ECG, and three-lead ZCG) were recorded before dosing and at 10, 20, 40 and 60 minutes, and at 2, 3, 4, 5, 6, 7 and 8 hours after morning dosing. […] All cardiovascular measurements were carried out after the subjects had been recumbent for at least 10 minutes; they generally stayed in bed from 1 hour before until 8 hours after morning dosing.
Systolic time intervals (STIs) and ZCG estimates of the systolic cardiac pump performance were derived from the simultaneous registration of a one-lead ECG, a phonocardiogram (PCG), and the rate of change of the transthoracic impedance (dZ/dt) to an AC current applied through the thoracic cage (CARDIODYNAGRAPH; Diefenbach GmbH, Wiesbaden, Germany). Tracings were captured and stored digitally during the study and subsequently analysed after the study by displaying the analogue ECG, PCG and ZCG signals on a computer screen. The relevant signal amplitudes and time intervals were delineated manually by operator-steered cursors; measurements were made for at least 10 artefact-free consecutive cardiac cycles. From these tracings, the following variables were derived by direct measurement: RR interval (ms), total electromechanic systole (QS2 [ms]), ventricular ejection time (VET [ms]), baseline transthoracic impedance (Z0 [Ω]), and maximum negative velocity of transthoracic impedance changes during the cardiac cycle (dZ/dtmax [Ω/s]). These variables were analysed for the 10 cycles and their means were used in the calculations of the following variables: heart rate (HR [bpm]), pre-ejection period (PEP [ms] = QS2 - VET), HR-corrected STIs (STIc and STIi according to Weissler et al.), ZCG estimates of stroke volume (SV [mL] according to Kubicek's equation [37] using the equation of Geddes and Sadler for the specific resistance of blood), cardiac output (CO [mL/min]), and total peripheral resistance (TPR [dyn.s.cm^-5]). For the latter variable, the mean blood pressure (MBP [mmHg]) was used as calculated according to Wezler and Böger from the systolic blood pressure (mmHg) and the diastolic blood pressure (mmHg).
ZCG analysis was carried out by a single analyst who was blinded with regard to subject, study regimen, profiling day within regimen, and time during the day.

- CO, Day 1-matched post-dose maximum dmax (δ), median (Day 11 (R)): 1.6 L/min
- CO, Day 1-matched post-dose minimum dmin (δ), median (Day 11 (R)): -1.7 L/min
- CO, untransformed post-dose maximum dmax (U), median (Day 11 (R)): 10.6 L/min
- CO, untransformed post-dose minimum dmin (U), median (Day 11 (R)): 8.3 L/min
- CO, untransformed pre-dose morning value, median (Day 11 (R)): 9.1 L/min
- HR, Day 1-matched post-dose maximum dmax (δ), median (Day 11 (R)): 9 bpm
- HR, Day 1-matched post-dose minimum dmin (δ), median (Day 11 (R)): -4 bpm
- HR, untransformed post-dose maximum dmax (U), median (Day 11 (R)): 64 bpm
- HR, untransformed post-dose minimum dmin (U), median (Day 11 (R)): 54 bpm
- HR, untransformed pre-dose morning value, median (Day 11 (R)): 63 bpm
- PEP, Day 1-matched post-dose maximum dmax (δ), median (Day 11 (R)): 25 ms
- PEP, Day 1-matched post-dose minimum dmin (δ), median (Day 11 (R)): -27 ms
- PEP, untransformed post-dose maximum dmax (U), median (Day 11 (R)): 121 ms
- PEP, untransformed post-dose minimum dmin (U), median (Day 11 (R)): 86 ms
- PEP, untransformed pre-dose morning value, median (Day 11 (R)): 94 ms
- QS2, Day 1-matched post-dose maximum dmax (δ), median (Day 11 (R)): 19 ms
- QS2, Day 1-matched post-dose minimum dmin (δ), median (Day 11 (R)): -34 ms
- QS2, untransformed post-dose maximum dmax (U), median (Day 11 (R)): 454 ms
- QS2, untransformed post-dose minimum dmin (U), median (Day 11 (R)): 410 ms
- QS2, untransformed pre-dose morning value, median (Day 11 (R)): 423 ms
- TPR, Day 1-matched post-dose maximum dmax (δ), median (Day 11 (R)): 126 dyn.s.cm^-5
- TPR, Day 1-matched post-dose minimum dmin (δ), median (Day 11 (R)): -128 dyn.s.cm^-5
- TPR, untransformed post-dose maximum dmax (U), median (Day 11 (R)): 934 dyn.s.cm^-5
- TPR, untransformed post-dose minimum dmin (U), median (Day 11 (R)): 733 dyn.s.cm^-5
- TPR, untransformed pre-dose morning value, median (Day 11 (R)): 838 dyn.s.cm^-5
- dZ/dt, Day 1-matched post-dose maximum dmax (δ), median (Day 11 (R)): 0.28 Ω/s
- dZ/dt, Day 1-matched post-dose minimum dmin (δ), median (Day 11 (R)): -0.10 Ω/s
- dZ/dt, untransformed post-dose maximum dmax (U), median (Day 11 (R)): 1.93 Ω/s
- dZ/dt, untransformed post-dose minimum dmin (U), median (Day 11 (R)): 1.56 Ω/s
- dZ/dt, untransformed pre-dose morning value, median (Day 11 (R)): 1.67 Ω/s
- CO, dmax (U), point estimate (95% CI) of difference between days (Day 11-Day 1): 0.2 (-1.1 to 1.4) L/min
- CO, dmin (U), point estimate (95% CI) of difference between days (Day 11-Day 1): -0.4 (-1.2 to 0.4) L/min
- CO, untransformed pre-dose morning value, point estimate (95% CI) of difference between days (Day 11-Day 1): -0.6 (-1.7 to 0.5) L/min
- HR, dmax (U), point estimate (95% CI) of difference between days (Day 11-Day 1): 3 (-4 to 6) bpm
- HR, dmin (U), point estimate (95% CI) of difference between days (Day 11-Day 1): 4 (1 to 7) bpm
- HR, untransformed pre-dose morning value, point estimate (95% CI) of difference between days (Day 11-Day 1): 3 (-5 to 8) bpm
- PEP, dmax (U), point estimate (95% CI) of difference between days (Day 11-Day 1): 3 (-7 to 11) ms
- PEP, dmin (U), point estimate (95% CI) of difference between days (Day 11-Day 1): 0 (-9 to 13) ms
- PEP, untransformed pre-dose morning value, point estimate (95% CI) of difference between days (Day 11-Day 1): -3 (-17 to 10) ms
- QS2, dmax (U), point estimate (95% CI) of difference between days (Day 11-Day 1): -1 (-11 to 11) ms
- QS2, dmin (U), point estimate (95% CI) of difference between days (Day 11-Day 1): -9 (-21 to 8) ms
- QS2, untransformed pre-dose morning value, point estimate (95% CI) of difference between days (Day 11-Day 1): -10 (-21 to 2) ms
- TPR, dmax (U), point estimate (95% CI) of difference between days (Day 11-Day 1): 47 (-124 to 178) dyn.s.cm^-5
- TPR, dmin (U), point estimate (95% CI) of difference between days (Day 11-Day 1): -18 (-96 to 43) dyn.s.cm^-5
- TPR, untransformed pre-dose morning value, point estimate (95% CI) of difference between days (Day 11-Day 1): 14 (-98 to 121) dyn.s.cm^-5
- dZ/dt, dmax (U), point estimate (95% CI) of difference between days (Day 11-Day 1): -0.05 (-0.25 to 0.15) Ω/s
- dZ/dt, dmin (U), point estimate (95% CI) of difference between days (Day 11-Day 1): 0.03 (-0.18 to 0.20) Ω/s
- dZ/dt, untransformed pre-dose morning value, point estimate (95% CI) of difference between days (Day 11-Day 1): -0.06 (-0.29 to 0.16) Ω/s
SMILES: O=C(Nc1c(Cl)cncc1Cl)c1ccc(OC(F)F)c(OCC2CC2)c1 [Roflumilast, 3-cyclopropylmethoxy-N-(3,5-dichloropyridin-4-yl)-4-(difluoromethoxy)benzamide]
- effect on cardiovascular function (ZCG/STI variables) (roflumilast alone): little effect
